Laboratory results: ChEMBL document CHEMBL1909294, “Translating clinical findings into knowledge in drug safety evaluation--drug induced liver injury prediction system (DILIps)” (PLoS Comput Biol, 2011)

Columns and labels:
[1] = test system: Hepatotoxicity;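 on HepSE cholecystitis: Cholecystitis-related hepatic side effect score drawn from the DILIps (drug-induced liver injury prediction) training data set; call rule not given here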;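 on HepSE cirrhosis: cirrhosis hepatic side effect score taken from the DILIps (drug-induced liver injury prediction) training set; call rule not given here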;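 on HepSE hepatic necrosis: score of hepatic side effects for hepatic necrosis, drawn from the training data of DILIps, a prediction system for drug-induced liver injury; call rule not given here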;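 on HepSE jaundice: Jaundice-related hepatic side-effect score drawn from the training data of the DILIps (drug-induced liver injury prediction system); call rule not given here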;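 on HepSE liver fatty: hepatic side effect score for fatty liver, taken from the DILIps training set for predicting drug-induced liver injury; call rule not given here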;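 on HepSE liver function tests abnormal: hepatic side effect score taken from the DILIps (drug-induced liver injury prediction system) training data, here covering abnormal liver function test findings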
[2] = test system: Hepatotoxicity; remark: listed apart in the source;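 on HepSE cholecystitis: Cholecystitis-related hepatic side effect score drawn from the DILIps (drug-induced liver injury prediction) training data set; call rule not given here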;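 on HepSE cirrhosis: cirrhosis hepatic side effect score taken from the DILIps (drug-induced liver injury prediction) training set; call rule not given here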;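 on HepSE hepatic necrosis: score of hepatic side effects for hepatic necrosis, drawn from the training data of DILIps, a prediction system for drug-induced liver injury; call rule not given here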;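 on HepSE jaundice: Jaundice-related hepatic side-effect score drawn from the training data of the DILIps (drug-induced liver injury prediction system); call rule not given here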;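 on HepSE liver fatty: hepatic side effect score for fatty liver, taken from the DILIps training set for predicting drug-induced liver injury; call rule not given here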;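 on HepSE liver function tests abnormal: hepatic side effect score taken from the DILIps (drug-induced liver injury prediction system) training data, here covering abnormal liver function test findings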
[3] = test system: Hepatotoxicity; remark: listed apart in the source;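 on HepSE cholecystitis: Cholecystitis-related hepatic side effect score drawn from the DILIps (drug-induced liver injury prediction) training data set; call rule not given here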;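 on HepSE cirrhosis: cirrhosis hepatic side effect score taken from the DILIps (drug-induced liver injury prediction) training set; call rule not given here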;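 on HepSE hepatic necrosis: score of hepatic side effects for hepatic necrosis, drawn from the training data of DILIps, a prediction system for drug-induced liver injury; call rule not given here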;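 on HepSE jaundice: Jaundice-related hepatic side-effect score drawn from the training data of the DILIps (drug-induced liver injury prediction system); call rule not given here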;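 on HepSE liver fatty: hepatic side effect score for fatty liver, taken from the DILIps training set for predicting drug-induced liver injury; call rule not given here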;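 on HepSE liver function tests abnormal: hepatic side effect score taken from the DILIps (drug-induced liver injury prediction system) training data, here covering abnormal liver function test findings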
[4] = test system: Hepatotoxicity; remark: listed apart in the source;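 on HepSE cholecystitis: Cholecystitis-related hepatic side effect score drawn from the DILIps (drug-induced liver injury prediction) training data set; call rule not given here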;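 on HepSE cirrhosis: cirrhosis hepatic side effect score taken from the DILIps (drug-induced liver injury prediction) training set; call rule not given here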;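 on HepSE hepatic necrosis: score of hepatic side effects for hepatic necrosis, drawn from the training data of DILIps, a prediction system for drug-induced liver injury; call rule not given here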;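 on HepSE jaundice: Jaundice-related hepatic side-effect score drawn from the training data of the DILIps (drug-induced liver injury prediction system); call rule not given here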;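 on HepSE liver fatty: hepatic side effect score for fatty liver, taken from the DILIps training set for predicting drug-induced liver injury; call rule not given here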
[5] = test system: Hepatotoxicity; remark: listed apart in the source
[6] = test system: Hepatotoxicity; remark: listed apart in the source
[7] = test system: Hepatotoxicity; remark: listed apart in the source
[8] = test system: Hepatotoxicity; remark: listed apart in the source
[9] = test system: Hepatotoxicity; remark: listed apart in the source
[10] = test system: Hepatotoxicity; remark: listed apart in the source
[11] = test system: Hepatotoxicity; remark: listed apart in the source
[12] = test system: Hepatotoxicity; remark: listed apart in the source
[13] = test system: Hepatotoxicity; remark: listed apart in the source
[14] = test system: Hepatotoxicity; remark: listed apart in the source

SMILES	HepSE_jaundice [1]	HepSE_hepatic necrosis [2]	HepSE_liver fatty [3]	HepSE_cirrhosis [4]	HepSE_bilirubinemia [5]	HepSE_cholecystitis [6]	HepSE_liver function tests abnormal [7]	HepSE_cholelithiasis [8]	HepSE_hepatitis [9]	HepSE_liver disease [10]	HepSE_hepatomegaly [11]	HepSE_Combined Scores [12]	HepSE_hepatic failure [13]	HepSE_elevated liver function tests [14]	further results
CC(C)=CCN1CC[C@]2(C)c3cc(O)ccc3C[C@H]1[C@H]2C [(+)-PENTAZOCINE]	0	0	0	0	0	0	0	0	0	0	0	0	0	0	
Nc1nc(NC2CC2)c2ncn([C@H]3C=C[C@@H](CO)C3)c2n1 [ABACAVIR]	0	0	1	0	0	0	0	0	0	0	0	3	1	1	
CC(=O)NCCCS(=O)(=O)O [ACAMPROSATE]	0	0	0	1	1	1	1	0	1	0	0	5	0	0	
C[C@H]1O[C@H](O[C@H]2[C@H](O)[C@@H](O)[C@@H](O[C@H]3[C@H](O)[C@@H](O)C(O)O[C@@H]3CO)O[C@@H]2CO)[C@H](O)[C@@H](O)[C@@H]1N[C@H]1C=C(CO)[C@@H](O)[C@H](O)[C@H]1O (some centres not stated) [ACARBOSE]	1	0	0	0	0	0	1	0	1	0	0	3	0	0	
CCCC(=O)Nc1ccc(OCC(O)CNC(C)C)c(C(C)=O)c1 (configuration not stated) [ACEBUTOLOL]	0	0	0	0	0	0	0	0	0	0	0	0	0	0	
CC(=O)Nc1nnc(S(N)(=O)=O)s1 [ACETAZOLAMIDE]	1	1	0	0	0	0	0	0	0	0	0	2	0	0	
CC(=O)O [ACETIC ACID]															HepSE_jaundice ([1]; Liver): 0; HepSE_hepatic necrosis ([2]; Liver): 0; HepSE_liver fatty ([3]; Liver): 0; HepSE_cirrhosis ([4]; Liver): 0; HepSE_bilirubinemia ([5]; Liver): 0; HepSE_cholecystitis ([6]; Liver): 0; HepSE_liver function tests abnormal ([7]; Liver): 0; HepSE_cholelithiasis ([8]; Liver): 0; HepSE_hepatitis ([9]; Liver): 0; HepSE_liver disease ([10]; Liver): 0; HepSE_hepatomegaly ([11]; Liver): 0; HepSE_Combined Scores ([12]; Liver): 0; HepSE_hepatic failure ([13]; Liver): 0; HepSE_elevated liver function tests ([14]; Liver): 0
CC(=O)OCC[N+](C)(C)C [ACETYLCHOLINE]															HepSE_jaundice ([1]; Liver): 0; HepSE_hepatic necrosis ([2]; Liver): 0; HepSE_liver fatty ([3]; Liver): 0; HepSE_cirrhosis ([4]; Liver): 0; HepSE_bilirubinemia ([5]; Liver): 0; HepSE_cholecystitis ([6]; Liver): 0; HepSE_liver function tests abnormal ([7]; Liver): 0; HepSE_cholelithiasis ([8]; Liver): 0; HepSE_hepatitis ([9]; Liver): 0; HepSE_liver disease ([10]; Liver): 0; HepSE_hepatomegaly ([11]; Liver): 0; HepSE_Combined Scores ([12]; Liver): 0; HepSE_hepatic failure ([13]; Liver): 0; HepSE_elevated liver function tests ([14]; Liver): 0
